Measurements: patent US11452716B2, “Pharmaceutical composition and use thereof” (Ascentage Pharma (Suzhou) Co., Ltd., priority 2018, dated 2022)
Several values for one entry are separate records, joined by “and”; a condition that tells them apart may be missing. Equal values may be shown once.

Experiments:
[1] = test system: liposarcoma patient-derived xenograft (LP-19-0029 PDX); assay: Antitumor activity in subcutaneous liposarcoma patient-derived xenograft (LP-19-0029 PDX) model; format: in vivo, Balb/c nude mice; conditions: for T/C (%) @D 21 / RTV @D 21: Embodiment 2, day 21, Compound C 80 mg/kg p.o. Q2D x 16D, Palbociclib 50 mg/kg p.o. QD x 3W; for RTV @D 21: mean ± SEM, n=5; for RTV @D 22 / T/C(%) @D 22: day 22, Compound C 40 mg/kg p.o. q.2d x 3w, Palbociclib 50 mg/kg p.o. q.d x 3w, Ribociclib 75 mg/kg p.o. q.d x 3w
Excerpt: Animals: Balb/c nude, female, 6-8 weeks, weighing approximately 18-22 g. A total of 40 (20 plus 100%) will be needed for the study, which will be purchased from Shanghai SLAC Laboratory Animal Co., LTD. Generation of the subcutaneous liposarcoma patient-derived xenograft (LP-19-0029 PDX) Model: The LP-19-0029 PDX model was originally established from a surgically resected clinical sample (cancer type: liposarcoma; pathology diagnosis: dedifferentiated liposarcoma), and implanted in nude mice defined as passage 0 (P0). The next passage implanted from P0 tumor was defined as passage 1 (P1), and so on during continual implantation in mice. The frozen tumor fragments will be revived in NOD SCID mice, when the tumors develop to suitable size, they will be passaged to Balb/c nude mice. The P4-P7 tumors will be used for the study. Each mouse was implanted subcutaneously at the right flank with the LP-19-0029 P4 tumor slices (about 30 mm^3) for tumor development. Treatments were started when the average tumor size reached approximately 150 mm^3. The animals were assigned into groups using an Excel-based randomization software performing stratified randomization based upon their tumor volumes. Each group consisted of 5 tumor-bearing mice. [table] Tumor volumes were measured twice weekly in two dimensions using a caliper, and the volume was expressed in mm^3 using the formula: Tumor Volume(mm^3)=0.5a×b^2 where a and b are the long and short diameters of the tumor, respectively. Relative tumor volume (RTV) was calculated using the following formula: RTV=Vt/Vl where Vl and Vt are the average tumor volumes on the first day of treatment (day 1) and the average tumor volumes on a certain time point (day t). Synergy score was calculated using the following formula described in Clarke R. Issues in experimental design and endpoint analysis in the study of experimental cytotoxic agents in vivo in breast cancer and other models[J]. Breast Cancer Research & Treatment, 1997, 46(2-3):255-278, which is incorporated by reference in its entirety: Synergy score=(([…]); where A is RTV value of drug A; B is RTV value of drug B; C is RTV value of vehicle control. AB is RTV value of combination treatment with A and B. Synergy scores: >1 represents synergistic, =1 represents additive, <1 represents antagonistic (referring to Gould S E et al. Translational value of mouse models in oncology drug development. Nature medicine. 2015 21, 431-439). Standard NCI procedures were used to calculate tumor parameters. Percent tumor growth inhibition (% T/C) was calculated as the mean RTV of treated tumors (T) divided by the mean RTV of control tumors (C)×100%. The percentage T/C value is an indication of antitumor effectiveness: a value of T/C<42% is considered significant antitumor activity by the NCI. A T/C value<10% is considered to indicate highly significant antitumor activity, and is the level used by the NCI to justify a clinical trial if toxicity and certain other requirements are met (termed DN-2 level activity). A body weight loss nadir (mean of group) of greater than 20%, or greater than 20% of drug deaths are considered to indicate an excessively toxic dosage. Summary statistics, including mean and the standard error of the mean (SEM), are provided for the tumor volume of each group at each time point. Statistical analysis of difference in the tumor volume among the groups were conducted on the data obtained at the best therapeutic time point after the final dose. A one-way ANOVA was performed to compare the tumor volume and the tumor weight among groups, and when a significant F-statistics (a ratio of treatment variance to the error variance) was obtained, comparisons between groups were carried out with Games-Howell test. All data were analyzed using SPSS 17.0. p<0.05 is considered to be statistically significant. […]

[2] = test system: lung cancer patient-derived xenograft (LU-01-0448 PDX); assay: Antitumor activity in subcutaneous lung cancer patient-derived xenograft (LU-01-0448 PDX) model; format: in vivo, mice; conditions: Embodiment 4; for mRECIST / Response @ D 33: animals per category, PD progressive disease, SD stable disease, PR partial response; for T/C(%) @ D 33 / RTV @ D 33 / Response @ D 33: day 33; for T/C(%) @ D 33 / RTV @ D 33: Compound C 100 mg/kg p.o. QD x 5 D, Palbociclib 50 mg/kg p.o. QD x 21 D; for RTV @ D 33: n=2
Protocol: Tumor volumes were measured twice weekly in two dimensions using a caliper, and the volume was expressed in mm^3 using the formula: Tumor Volume(mm^3)=0.5a×b^2 Relative tumor volume (RTV) was calculated using the following formula: RTV=Vt/Vl Synergy score=(([…]); where A is RTV value of drug A; B is RTV value of drug B; C is RTV value of vehicle control. AB is RTV value of combination treatment with A and B. Synergy scores: >1 represents synergistic, =1 represents additive, <1 represents antagonistic (referring to Gould S E et al. Translational value of mouse models in oncology drug development. Nature medicine. 2015 21, 431-439). Standard NCI procedures were used to calculate tumor parameters. Percent tumor growth inhibition (% T/C) was calculated as the mean RTV of treated tumors (T) divided by the mean RTV of control tumors (C)×100%. The percentage T/C value is an indication of antitumor effectiveness: a value of T/C<42% is considered significant antitumor activity by the NCI. A T/C value<10% is considered to indicate highly significant antitumor activity, and is the level used by the NCI to justify a clinical trial if toxicity and certain other requirements are met (termed DN-2 level activity). A body weight loss nadir (mean of group) of greater than 20%, or greater than 20% of drug deaths are considered to indicate an excessively toxic dosage. Compound C was further tested in combination with palbociclib in another patient-derived xenograft model (LU-01-0448 PDX model). LU-01-0448 PDX model was a subcutaneous lung cancer patient-derived xenograft model, which was established according to the procedures of LP-19-0029 PDX model in embodiment 2. This experiment was carried out according to Table 4 and the procedures described in embodiment 2. [table]

Structure (SMILES)	T/C (%) @D 21 [1]	T/C (%) @D 21 ([1]; listed as compound C)	RTV @D 21 [1]	RTV @35 ([1]; Embodiment 3, @35, Compound C 40 mg/kg, Palbociclib 50 mg/kg, Ribociclib 75 mg/kg)	RTV @D 22 ([1]; Embodiment 3)	T/C(%) @D 22 ([1]; Embodiment 3)	mRECIST [2]	T/C(%) @ D 33 [2]	RTV @ D 33 [2]	Response @ D 33 [2]	T/C(%) @D 22 ([1]; Embodiment 3, listed as ribociclib)	T/C(%) @D 22 ([1]; Embodiment 3, listed as palbociclib)
CCN1[C@@H](C(=O)NC23CCC(C(=O)O)(CC2)CC3)[C@H](c2cccc(Cl)c2F)[C@]2(C(=O)Nc3cc(Cl)ccc32)C12CCCCC2 [Compound C, 4-((3′R,4′S,5′R)-6″-Chloro-4′-(3-chloro-2-fluorophenyl)-1′-ethyl-2″-oxodispiro[cyclohexane-1,2′-pyrrolidine-3′,3″-indoline]-5′-carboxamido)bicyclo[2.2.2]octane-1-carboxylic acid]	22.28%	22%	4.83 ± 1.56	10.95 ± 1.66	5.24 ± 0.61	38.4% and 38.44%	2/2 SD	41.43%	4.85 ± 1.85	2/2 PD		
CN(C)C(=O)c1cc2cnc(Nc3ccc(N4CCNCC4)cn3)nc2n1C1CCCC1 [Ribociclib, ribociclib]					9.77 ± 1.22	71.70%					71.7%	
CC(=O)c1c(C)c2cnc(Nc3ccc(N4CCNCC4)cn3)nc2n(C2CCCC2)c1=O [Palbociclib, palbociclib]	70%		15.19 ± 1.31		11.36 ± 0.96	83.50%	2/2 PD	35.71%	4.18 ± 0.80	2/2 PD		83.5%
